In publication PMC5632533, “Mechanisms of action and in vivo antibacterial efficacy assessment of five novel hybrid peptides derived from Indolicidin and Ranalexin against Streptococcus pneumoniae” (PeerJ, 2017):

Key:
[1] = test system: Streptococcus pneumoniae; conditions: 30 pneumococcal clinical isolates; earlier study; ref Jindal et al., 2015; cited from earlier work
Excerpt: Table 1 Sequences and physicochemical properties of the template and hybrid AMPs. | column: MIC^a || One of the advantageous alternatives to today’s antibiotics is antimicrobial peptides (AMPs) ([Deslouches et al., 2013]; [Sánchez-Vásquez et al., 2013]). AMPs are synthesized by almost all living beings as the first line of defense in their immune system against microbial infection. Many aspects favor AMPs over traditional antibiotics: a broad range of antimicrobial activity against pathogenic micro-organisms (including viruses, parasites, bacteria, and fungi), microbial pathogens are less efficient in developing resistance against AMPs, as killing take place in a short contact time and AMPs c ...

[2] = test system: S. pneumoniae; assay: Transmission electron microscopy (TEM) of treated cells; type: cell-based, Streptococcus pneumoniae; conditions: 10^8 CFU/ml in CAMHB; 8 × MIC (125 µg/ml; RN7-IN7 500 µg/ml); 1 h, 37 °C, 5% CO2
Method: Bacteria were prepared for TEM according to the guidelines of the Electron Microscopy Unit at the Faculty of Medicine, University of Malaya. S. pneumoniae cultures were grown overnight on Columbia agar with 5% sheep blood and suspended in cationally adjusted Mueller-Hinton broth (CAMHB) at 10^8 CFU/ml. […] Cells in cationally adjusted Mueller-Hinton broth (CAMHB) were used as an untreated control. After an hour of incubation, the pneumococcal cells were centrifuged to discard the medium, washed thrice with 10 mM phosphate buffer saline at pH 7.3 and fixed overnight in 4% (v/v) glutaraldehyde. All samples were washed twice with cacodylate buffer, incubated for 2 h in osmium tetroxide buffer (OsO4 1: 1 cacodylate), washed twice with cacodylate buffer and then incubated overnight in cacodylate buffer. All the samples were washed with distilled water twice and incubated for 10 min with uranyl acetate. After this, all samples were then washed twice with distilled water and dehydrated in an ascending series of ethanol: 35% (10 min), 50% (10 min), 70% (10 min), 95% (15 min), and thrice in 100% ethanol (15 min). After dehydration, samples were incubated with propylene oxide (15 min), propylene oxide 1:1 Epon (1 h), propylene oxide 1:3 Epon (2 h) and finally incubated overnight with Epon. All the samples were embedded in agar 100 resin at 37 °C for 5 hr and maintained at 60 °C until viewing. Reichert Ultramicrotome copper grids 3.05 mm (300 square mesh) (Agar Scientific, Essex, United Kingdom) were used to prepare Ultrathin sections. Ethanol-based uranyl acetate and lead citrate were used to stain the samples for 5 min. Transmission electron microscope (Leo Libra 120) was used to capture the images.

Substance	MIC, minimum inhibitory concentration [1]	TEM: detachment of cell wall from cell membrane [2]
FLGGLIKKWPWWPWRR-NH2 [RN7-IN9, hybrid peptide of ranalexin (residues 1-7) and indolicidin (residues 5-13)]	7.81 to 15.62 mg/L	partial disconnection of the cell wall from the cell membrane
FLGGLIKWKWPWWPWRR-NH2 [RN7-IN10, hybrid peptide of ranalexin (residues 1-7) and indolicidin (residues 4-13)]	7.81 to 15.62 mg/L	–
FLGGLIKWPWWPWRR-NH2 [RN7-IN8, hybrid peptide of ranalexin (residues 1-7) and indolicidin (residues 6-13)]	7.81 to 15.62 mg/L	partial disconnection of the cell wall from the cell membrane
FLGGLIKWWPWRR-NH2 [RN7-IN6, hybrid peptide of ranalexin (residues 1-7) and indolicidin (residues 8-13)]	7.81 to 15.62 mg/L	partial disconnection of the cell wall from the cell membrane
